In paper PMC11009625, “Antibiotic class with potent in vivo activity targeting lipopolysaccharide synthesis in Gram-negative bacteria” (Proceedings of the National Academy of Sciences of the …, 2024):
Values after ≈ are worked out from the molar mass of the structure shown. Where two headings read alike, the source gives them in different places.

Key:
K. pneumoniae ATCC 13883 = assay: MIC, K. pneumoniae, with and without 50% human serum; type: cell-based
Experimental: (§1) Minimum inhibitory concentration (MIC) values were determined according to the Clinical Laboratory Standards Institute guidelines. Frequency of resistance was determined by plating ~5 × 10^8 bacterial cells on agar-solidified media plates containing test compound at concentrations corresponding to four times the measured solid-media MIC of the strains. Colonies were counted after 24 h, restreaked onto media containing the same concentration of compound, and the MIC remeasured against the assayed compound. Genomic DNA from isolated clones was sequenced by paired-end sequencing on an Illumina MiSeq device. Complete experimental details available in SI Appendix. […]
(§2) Minimum inhibitory concentration (MIC) determination. Broth microdilution and agar dilution
(§3) MIC assays were conducted according to CLSI guidelines (M07-2012). Appropriate inoculation
(§4) suspension density was assessed using a Sensititre Nephelometer with a Sensititre 0.5
McFarland Standard. Serum MICs were conducted in 50% heat-inactivated pooled human

HepG2 cells = assay: HepG2 cytotoxicity (72 h); type: cell-based
Experimental: (§5) Thermodynamic solubility was assessed by dissolving 2 to 3 mg of test compound to equilibrium in 100 mM KPO4-buffer, pH 7.4. The metabolic stability assay was performed in the presence of human and mouse liver microsomes by measurement of test compounds disappearance over time (60 min). The plasma protein binding assay, including stability estimation, was performed using the RED devices (Thermo Fisher Scientific) in the presence of human and mouse plasma. All samples from the in vitro ADME studies were quantified by liquid chromatography-triple quadrupole mass spectrometry (LC–MS/MS). The assays were performed as previously described ([36]) and the details are available in SI Appendix. Cytotoxicity was assessed by incubation of test compounds in the presence of HepG2 cells for 72 h as previously described ([37]).

E. coli ATCC 25922 = assay: MIC (CLSI broth microdilution), wild-type E. coli; type: cell-based; details: Escherichia coli, ATCC25922
Experimental: as §1, §2, §3, §4
McFarland Standard. […]

in vitro = type: cell-based
Experimental: Minimum inhibitory concentration (MIC) determination. Broth microdilution and agar dilution MIC assays were conducted according to CLSI guidelines (M07-2012). Appropriate inoculation suspension density was assessed using a Sensititre Nephelometer with a Sensititre 0.5 McFarland Standard. Serum MICs were conducted in 50% heat-inactivated pooled human serum (Sigma-Aldrich). Serum was heated to 56 °C for one hour and then filtered using a 0.2 µm […]
Strain construction. The efflux-defective P. mirabilis strain EN1490 was constructed using EZ-Tn5 <KAN-2> Transposome mutagenesis with TypeOne Restriction Inhibitor. Approximately 3000 independent clones were screened for increased susceptibility to chloramphenicol (8 mg/L), yielding 2 independent clones with insertions in the gene tolC. […]

[1] = system: E. coli ATCC 25922 ΔtolC efflux mutant; assay: MIC, E. coli efflux mutant; type: cell-based
Experimental: as §1, §2, §3

[2] = Metabolic stability in mouse liver microsomes; type: in vitro ADME; details: pH 7.4
Experimental: as §5, with “([37]). […]” for “([37]).”
(§6) The plate is then sealed, centrifuged and the supernatant is analysed by liquid
(§7) chromatography coupled to triple quadrupole mass spectrometry (LC-MS/MS).
(§8) Metabolic stability in the presence of human and animal liver microsomes. Metabolic stability
(§9) was determined in 0.5 mg/ml human or animal liver microsomes at a compound concentration
(§10) of 1 μM in 100 mM KPO4 buffer pH 7.4 in a total incubation volume of 500 μl. The reaction was
(§11) initiated by addition of 1 mM NADPH. At various incubation times, i.e. at 0, 5, 10, 20, 40 and 60
(§12) min, a sample was withdrawn from the incubation and the reaction was terminated by addition
(§13) of cold acetonitrile with warfarin as an internal standard. […]
(§14) Liquid chromatography coupled to triple quadrupole mass spectrometry (LC-MS/MS). The test
(§15) compounds were optimized on a Waters Acquity UPLC XEVO TQ-S micro system (Waters Corp.)
(§16) operating in multiple reaction monitoring (MRM) mode with positive or negative electrospray
(§17) ionization. Compounds were optimized by using the QuanOptimize software (Waters Corp.).
(§18) For chromatographic separation, a C18 BEH 1.7 µm column was used, with a general gradient of
(§19) 1% to 90% of mobile phase B over a total running time of 2 min. Mobile phase A consisted of
(§20) 5% acetonitrile and 0.1% formic acid in purified water, and mobile phase B of 0.1% formic acid
(§21) in 100% acetonitrile. The flow rate was set to 0.5 ml/min and 5 µL of the sample was injected.

Thermodynamic solubility = type: physicochemical; details: 37 °C, aqueous buffer, thermodynamic from solid; 100 mM KPO4-buffer, pH 7.4
Experimental: as §5, with “([37]). […]” for “([37]).”
as §6
chromatography coupled to triple quadrupole mass spectrometry (LC-MS/MS). […]
Thermodynamic solubility. Thermodynamic solubility assay utilized solid form of a test
compound. Solid test compound (~2-3 mg) was weighed in a glass HPLC vial and 100 mM KPO4-
buffer, pH 7.4 was added to give a theoretical max concentration if everything is dissolved of ~5-
6 mg/ml. The vial was incubated at 900 rpm, 37 °C in a rotational shaker for 24h. After the
incubation an aliquot (200 µl) was transferred to a glass insert and centrifuged at 10 000xg, 37 °C
for 20 min to separate any solid material from the solution. The supernatant was transferred to
a new HPLC vial and analysed by liquid chromatography coupled to triple quadrupole mass
as §14, §15, §16, §17, §18, §19, §20, §21

[3] = Metabolic stability in human liver microsomes; type: in vitro ADME; details: pH 7.4
Experimental: as §5, with “([37]). […]” for “([37]).”
as §6, §7, §8, §9, §10, §11, §12, §13, §14, §15, §16, §17, §18, §19, §20, §21

[4] = Klebsiella pneumoniae, ATCC13883, read-out: MIC K. pneumoniae ATCC 13883 Wild-type
[5] = Homo sapiens, HepG2, 72 h, read-out: HepG2 viability IC50, 72 h
[6] = read-out: MIC E. coli ATCC 25922 Wild-type
[7] = Klebsiella pneumoniae, ATCC13883, read-out: MIC K. pneumoniae ATCC 13883 In 50% human serum
[8] = ATCC 25922 (Table S4), read-out: MIC E. coli EN0001

SMILES | MIC (K. pneumoniae ATCC 13883; [4]) | IC50 (HepG2 cells; [5]) | MIC (E. coli ATCC 25922; [6]) | hemolysis (in vitro) | MIC E. coli ATCC 25922 ΔtolC efflux mutant [1] | microsomal CLint at 1 µM [2] | MIC (K. pneumoniae ATCC 13883; [7]) | solubility thermodynamic at 24 h (Thermodynamic solubility) | microsomal CLint at 1 µM [3] | MIC (K. pneumoniae ATCC 13883; Klebsiella pneumoniae, ATCC13883; read-out: MIC K. pneumoniae ATCC 13883 In 50% human serum) | MIC (K. pneumoniae ATCC 13883; Klebsiella pneumoniae, ATCC13883; read-out: MIC K. pneumoniae ATCC 13883 Wild-type) | IC50 (HepG2 cells; Homo sapiens, HepG2, 72 h, read-out: HepG2 viability IC50) | MIC (E. coli ATCC 25922; [8]) | IC50 (HepG2 cells; read-out: HepG2 viability IC50, 72 h)
CC(=O)N1CCc2cc(S(=O)(=O)N3CCN(c4cccc(C(F)(F)F)c4)CC3)ccc21 [AZ1, reference compound] | > 64 µg/mL | 22.5 µM | > 64 µg/mL | 2.1% | 2 µg/mL (≈ 4.41 µM) |  |  |  |  |  |  |  |  | 
CN(c1ccc(CNCCN)cc1C(=O)Nc1ccc(S(=O)(=O)N2CCN(c3cc(Cl)cc(Cl)c3)CC2)cc1)S(C)(=O)=O [EBL-3025] | 0.5 µg/mL (≈ 0.747 µM) | 49 µM | 1 µg/mL (≈ 1.49 µM) | 1.98% | ≤0.125 µg/mL | 31 µL/min/mg | 0.5 µg/mL (≈ 0.747 µM) | 4 µM (≈ 2.68 µg/mL) | 42.2 µL/min/mg |  |  |  |  | 
Cc1cc(C#N)nc(N2CCN(S(=O)(=O)c3ccc(NC(=O)c4ccccc4N(C)S(C)(=O)=O)cc3)CC2)n1 [EBL-3339] | 0.5 µg/mL (≈ 0.878 µM) | 29 µM | 1 µg/mL (≈ 1.76 µM) | 0.05% | ≤0.125 µg/mL | 625 µL/min/mg | 2 µg/mL (≈ 3.51 µM) | 1.2 µM (≈ 0.684 µg/mL) | 551 µL/min/mg |  |  |  |  | 
Cc1cc(C#N)nc(N2CCN(S(=O)(=O)c3ccc(NC(=O)c4cc(CNCCCN)ccc4N(C)S(C)(=O)=O)cc3)CC2)n1.Cl.Cl [EBL-3599] |  |  | 2 µg/mL | 0.06% | ≤0.125 µg/mL | < 5 µL/min/mg |  | 1530 µM | < 5 µL/min/mg | 0.25 µg/mL | 1 µg/mL | 55 µM | 2 µg/mL | 
Cc1cc(C#N)nc(N2CCN(S(=O)(=O)c3ccc(NC(=O)c4cc(CN5CC(CN)C5)ccc4N(C)S(C)(=O)=O)cc3)CC2)n1 [EBL-3647] | 0.5 µg/mL (≈ 0.749 µM) | 54 µM | 2 µg/mL (≈ 2.99 µM) | 0.13% | ≤0.125 µg/mL | < 5 µL/min/mg | 0.25 µg/mL (≈ 0.374 µM) | 1090 µM (≈ 728 µg/mL) | 3.1 µL/min/mg |  |  |  | 2 µg/mL (≈ 2.99 µM) | 
CN(c1ccccc1C(=O)Nc1ccc(S(=O)(=O)N2CCCCC2)cc1)S(C)(=O)=O [JEDI-852] | > 64 µg/mL | > 32 µM | > 64 µg/mL | 0.03% | 4 µg/mL (≈ 8.86 µM) |  |  |  |  |  |  |  |  | > 64 µM
CN(c1ccccc1C(=O)Nc1ccc(S(=O)(=O)N2CCN(c3cccc(C(F)(F)F)c3)CC2)cc1)S(C)(=O)=O [JEDI-1444] | 2 µg/mL (≈ 3.35 µM) | > 64 µM | 2 µg/mL (≈ 3.35 µM) | 0.02% | ≤0.125 µg/mL | 126 µL/min/mg | 32 µg/mL (≈ 53.6 µM) | 0.21 µM (≈ 0.125 µg/mL) | 209 µL/min/mg |  |  |  |  | 
